Consider 1 molecule from patent US6420557B1, “Crystalline therapeutic agent” (Pfizer Inc., priority 2000, dated 2002).

Each structure is given as a SMILES string.

One data set concerns the target cGMP PDE5 (Homo sapiens, UniProt O76074). To be noted: statement in words, as detailed in WO 01/27113; cited from earlier work.
Data set [1] in a line: early investigations of the crystals (hygroscopicity, stability, formulation properties). It counts as physicochemical. As to conditions: crystals having the XRD pattern of Table 1.

Turning to `CCOc1ncc(S(=O)(=O)N2CCN(CC)CC2)cc1-c1nc2c(CC)n(CCOC)nc2c(=O)[nH]1` [Example 1, 1-{6-ethoxy-5-[3-ethyl-6,7-dihydro-2-(2-methoxyethyl)-7-oxo-2H-pyrazolo[4,3-d]pyrimidin-5-yl]-3-pyridylsulfonyl}-4-ethylpiperazine], the “cGMP PDE5 inhibitor potency and selectivity” value on cGMP PDE5 was “potent and selective”. In addition, in data set [1], the formulation properties result is “good formulation properties”, the hygroscopicity result is reported as “non-hygroscopic” and the stability result is listed as “stable”.
